Where “and” joins values, the source holds several entries; their conditions need not be identical. Equal values may be shown once. Entries after “also recorded” stand apart in the source; their conditions may differ. Read-outs that look alike come from different tables or passages of the source.
Experiments:
[1] = tested on: poly(dA-dT); assay: ethidium displacement assay, poly(dA-dT); settings: relative to ethidium 9.5 × 10^6 M^-1, average of repeat measurements
[2] = tested on: T4 lymphocytes (CEM cell line); assay: NCI anti-HIV screen, toxicity control in uninfected cells; type: cell-based
[3] = tested on: HIV-1; settings: for Anti-HIV-1 Activity (National Cancer Institute Designation): inactive, moderate or active
[4] = tested on: 2.2.15 cells; assay: toxicity analysis, neutral red dye uptake in 2.2.15 cells; settings: triplicate, ± standard deviation
[5] = tested on: calf thymus DNA; assay: ethidium displacement assay, drug-DNA binding constant, calf thymus DNA; settings: relative to ethidium 10^7 M^-1, average of repeat measurements
[6] = tested on: HBV; assay: inhibition of HBV DNA replication in 2.2.15 cell cultures; type: cell-based; settings: for INT[…] DNA MONO.: 24 hours following the 9th day of treatment; for INT[…] DNA MONO. / HBV VIRION DNA DAY 0 / HBV VIRION DNA DAY 6 / HBV VIRION DNA DAY 9: single well
[7] = solubility in DMSO, MeOH, H2O; type: physicochemical
[8] = dose 1.05 × 10^-8 Molar, Table VIII
[9] = dose 1.09 × 10^-7 Molar, Table VIII
[10] = dose 3.31 × 10^-6 Molar, Table VIII
[11] = dose 3.31 × 10^-7 Molar, Table VIII
[12] = dose 3.32 × 10^-8 Molar, Table VIII
[13] = dose […] 10^-6 Molar, Table VIII
[14] = HIV-1 infected CEM cells, 6 days, XTT, Tables VI-X
[15] = dose 1.34 × 10^-3 Molar, Table VII
[16] = dose 1.34 × 10^-4 Molar, Table VII
[17] = dose 1.35 × 10^-5 Molar, Table VII
[18] = dose 1.35 × 10^-6 Molar, Table VII
[19] = dose 4.26 × 10^-4 Molar, Table VII
[20] = dose 4.26 × 10^-5 Molar, Table VII
[21] = dose 4.27 × 10^-6 Molar, Table VII
[22] = dose 4.28 × 10^-7 Molar, Table VII
[23] = dose 3.02 × 10^-4 Molar, Table IX
[24] = dose 3.03 × 10^-5 Molar, Table IX
[25] = dose 3.03 × 10^-6 Molar, Table IX
[26] = dose 3.04 × 10^-7 Molar, Table IX
[27] = dose 9.54 × 10^-5 Molar, Table IX
[28] = dose 9.57 × 10^-4 Molar, Table IX
[29] = dose 9.59 × 10^-6 Molar, Table IX
[30] = dose 9.61 × 10^-7 Molar, Table IX
[31] = 10 μM, listed as Compound 14, dihydrochloride
[32] = 50 μM, listed as Compound 14, dihydrochloride

Structure (SMILES): Cl.Cl.Cn1cc(NC(=O)c2cc(NC(=O)/C=C/C(=O)Nc3cc(C(=O)Nc4cc(C(=O)NCCC(=N)N)n(C)c4)n(C)c3)cn2C)cc1C(=O)NCCC(=N)N [Compound 21b, N,N'-di[1-methyl-2-[1-methyl-2-carboxamido(3-propionamidine)-4-pyrrole]-4-4pyrrolyl] fumaride dihydrochloride]
- Kapp [1]: 4.9e+07 M⁻¹
- […] % of Control [2, 8]: 83.05 % of Control
- […] % of Control [2, 9]: 90.26 % of Control
- […] % of Control [2, 10]: 151.83 % of Control
- […] % of Control [2, 11]: 88.21 % of Control
- […] % of Control [2, 12]: 67.56 % of Control
- […] % of Control [2, 13]: 83.87 % of Control
- EC50 [3, 14]: 1670 nM
- EC50 ([3]; Table XI): 1370 nM
- INFECTED RESPONSE % of Control [3, 8]: 18.00 % of Control
- INFECTED RESPONSE % of Control [3, 9]: 26.15 % of Control
- INFECTED RESPONSE % of Control [3, 10]: 96.78 % of Control
- INFECTED RESPONSE % of Control [3, 11]: 20.00 % of Control
- INFECTED RESPONSE % of Control [3, 12]: 22.96 % of Control
- INFECTED RESPONSE % of Control [3, 13]: 38.90 % of Control

Structure (SMILES): Cl.Cl.Cn1cc(NC(=O)c2cc(NC(=O)CCC(=O)Nc3cc(C(=O)Nc4cc(C(=O)NCCC(=N)N)n(C)c4)n(C)c3)cn2C)cc1C(=O)NCCC(=N)N [Compound 5]
- NEUTRAL RED DYE UPTAKE ([4]; 10 μg/ml): 99 ± 2 % OF CONTROL
- NEUTRAL RED DYE UPTAKE ([4]; 30 μg/ml): 100 ± 1 % OF CONTROL
- Anti-HIV-1 Activity (National Cancer Institute Designation) [3]: Moderate
- DNA Binding Constant [5]: 7.2e+07 M⁻¹

Structure (SMILES): Cl.Cl.Cn1cc(NC(=O)c2cc(NC(=O)c3cccc(C(=O)Nc4cc(C(=O)Nc5cc(C(=O)NCCC(=N)N)n(C)c5)n(C)c4)c3)cn2C)cc1C(=O)NCCC(=N)N [Compound 20b, N,N'-di[1-methyl-2-[1-methyl-2-carboxamido(3-propionamidine)-4-pyrrole]-4-pyrrolyl] isophthalamide dihydrochloride]
- Kapp [1]: 4.9e+07 M⁻¹
- […] % of Control [2, 15]: 10.39 % of Control
- […] % of Control [2, 16]: 142.80 % of Control
- […] % of Control [2, 17]: 117.76 % of Control
- […] % of Control [2, 18]: 131.95 % of Control
- […] % of Control [2, 19]: -0.29 % of Control
- […] % of Control [2, 20]: 123.27 % of Control
- […] % of Control [2, 21]: 123.64 % of Control
- […] % of Control [2, 22]: 116.38 % of Control
- EC50 [3, 14]: 3550 nM
- INFECTED RESPONSE % of Control [3, 15]: 4.26 % of Control
- INFECTED RESPONSE % of Control [3, 16]: 63.57 % of Control
- INFECTED RESPONSE % of Control [3, 17]: 117.45 % of Control
- INFECTED RESPONSE % of Control [3, 18]: 29.25 % of Control
- INFECTED RESPONSE % of Control [3, 19]: 0.02 % of Control
- INFECTED RESPONSE % of Control [3, 20]: 120.68 % of Control
- INFECTED RESPONSE % of Control [3, 21]: 64.76 % of Control
- INFECTED RESPONSE % of Control [3, 22]: 48.47 % of Control

Structure (SMILES): Cl.Cl.Cn1cc(NC(=O)c2cc(NC(=O)/C=C\C(=O)Nc3cc(C(=O)Nc4cc(C(=O)NCCC(=N)N)n(C)c4)n(C)c3)cn2C)cc1C(=O)NCCC(=N)N [Compound 22b]
- Kapp [1]: 3.8e+07 M⁻¹
- […] % of Control [2, 23]: -0.86 % of Control
- […] % of Control [2, 24]: 112.05 % of Control
- […] % of Control [2, 25]: 103.19 % of Control
- […] % of Control [2, 26]: 100.16 % of Control
- […] % of Control [2, 27]: 94.16 % of Control
- […] % of Control [2, 28]: 5.40 % of Control
- […] % of Control [2, 29]: 112.20 % of Control
- […] % of Control [2, 30]: 100.02 % of Control
- NEUTRAL RED DYE UPTAKE ([4]; 10 μg/ml): 99 ± 2 % OF CONTROL
- NEUTRAL RED DYE UPTAKE ([4]; 30 μg/ml): 98 ± 1 % OF CONTROL
- NEUTRAL RED DYE UPTAKE ([4]; 100 μg/ml): 99 ± 1 % OF CONTROL
- NEUTRAL RED DYE UPTAKE ([4]; 300 μg/ml): 85 ± 2 % OF CONTROL
- INT[…] DNA MONO. [6, 31]: 2.5 pg/μg CELL DNA and 2.2 pg/μg CELL DNA and 2.3 pg/μg CELL DNA and 2.1 pg/μg CELL DNA
- HBV VIRION DNA DAY 0 [6, 31]: 50 pg/ml CULTURE MEDIUM and 61 pg/ml CULTURE MEDIUM and 55 pg/ml CULTURE MEDIUM and 67 pg/ml CULTURE MEDIUM
- HBV VIRION DNA DAY 6 [6, 31]: 110 pg/ml CULTURE MEDIUM and 120 pg/ml CULTURE MEDIUM and 77 pg/ml CULTURE MEDIUM and 87 pg/ml CULTURE MEDIUM
- HBV VIRION DNA DAY 9 [6, 31]: 21 pg/ml CULTURE MEDIUM and 25 pg/ml CULTURE MEDIUM and 22 pg/ml CULTURE MEDIUM and 20 pg/ml CULTURE MEDIUM
- INT[…] DNA MONO. [6, 32]: 1.9 pg/μg CELL DNA and 2.0 pg/μg CELL DNA and 2.3 pg/μg CELL DNA
- HBV VIRION DNA DAY 0 [6, 32]: 71 pg/ml CULTURE MEDIUM and 89 pg/ml CULTURE MEDIUM and 51 pg/ml CULTURE MEDIUM and 92 pg/ml CULTURE MEDIUM
- HBV VIRION DNA DAY 6 [6, 32]: 26 pg/ml CULTURE MEDIUM and 27 pg/ml CULTURE MEDIUM and 36 pg/ml CULTURE MEDIUM and 37 pg/ml CULTURE MEDIUM
- HBV VIRION DNA DAY 9 ([6]; 50 μM, zero = undetectable, cutoff 0.1 pg/ml): 1 pg/ml CULTURE MEDIUM
- effect on HBV replication (in words) ([6]; tested at 50 and 10 μM, compared with 2',3'-ddC, listed as 14, dihydrochloride): just slightly less than that observed with the control; also recorded: potent inhibitors
- Solubility in DMSO ([7]; DMSO): good
- Solubility in MeOH ([7]; MeOH): good
- INFECTED RESPONSE % of Control [3, 23]: -0.29 % of Control
- INFECTED RESPONSE % of Control [3, 24]: 114.32 % of Control
- INFECTED RESPONSE % of Control [3, 25]: 44.03 % of Control
- INFECTED RESPONSE % of Control [3, 26]: 28.75 % of Control
- INFECTED RESPONSE % of Control [3, 27]: 84.02 % of Control
- INFECTED RESPONSE % of Control [3, 28]: -0.14 % of Control
- INFECTED RESPONSE % of Control [3, 29]: 115.19 % of Control
- INFECTED RESPONSE % of Control [3, 30]: 32.14 % of Control
- Anti-HIV-1 Activity (National Cancer Institute Designation) [3]: Active

Reference: patent publication US5616606A, “Oligopeptide antiretroviral agents” (priority 1995, dated 1997)
